Experimental data published in US20230321196A1 (priority 2020, published 2023).
Read-outs that look alike come from different tables or passages of the source. Bridges are numbered along the chain shown (N, C = ends). Where no end group is shown, it is not given here.

Key:
[1] = tested on: influenzavirus-infected mice; type: in vivo; details: for Score of gross lesion examination of lung: day 5 after inoculation
[2] = tested on: influenzavirus-infected mice; type: in vivo; details: mean ± SE
[3] = tested on: influenzavirus-infected mice; type: in vivo
[4] = tested on: influenzavirus-infected mice; type: in vivo; remark: listed apart in the source
[5] = tested on: influenzavirus PR8(A/PR/8/34 (H1N1)); test: Test III: virus concentration in lung; type: in vivo, mice; details: administered groups vs control group
[6] = tested on: COVID-19 patients; details: 15 ng/kg body weight/min i.v. continuous 72 hours, then 8 hours per day up to day 10; trial still blinded
[7] = tested on: influenzavirus-infected mice; type: in vivo; details: left lung, mean ± SE
[8] = tested on: influenzavirus PR8(A/PR/8/34 (H1N1)); test: Test II: virus concentration in lung; type: in vivo, mice; details: for Virus concentration in lung: right lung, day 5 after inoculation, mean ± SE
[9] = tested on: influenzavirus-infected mice; type: in vivo; remark: listed apart in the source
[10] = tested on: influenzavirus-infected mice; type: in vivo; details: for Score of gross lesion examination of lung: day 5 after inoculation; remark: listed apart in the source
[11] = tested on: influenzavirus-infected mice; type: in vivo; remark: listed apart in the source
[12] = 25 nmol/kg i.v., day 1 after inoculation
[13] = 25 nmol/kg i.v., day 2 after inoculation
[14] = 25 nmol/kg i.v., day 3 after inoculation
[15] = 25 nmol/kg i.v., day 4 after inoculation
[16] = 25 nmol/kg i.v., day 5 after inoculation
[17] = 25 nmol/kg tail vein once per day, day 0 after inoculation, mean ± SE
[18] = 250 nmol/kg i.v., day 1 after inoculation
[19] = 250 nmol/kg i.v., day 2 after inoculation
[20] = 250 nmol/kg i.v., day 3 after inoculation
[21] = 250 nmol/kg i.v., day 4 after inoculation
[22] = 250 nmol/kg i.v., day 5 after inoculation
[23] = 250 nmol/kg tail vein once per day, day 0 after inoculation, mean ± SE
[24] = Test II, administered groups vs control group
[25] = 10 nmol/kg i.v., day 0 after inoculation
[26] = 10 nmol/kg i.v., day 1 after inoculation
[27] = 10 nmol/kg i.v., day 2 after inoculation
[28] = 10 nmol/kg i.v., day 3 after inoculation
[29] = 10 nmol/kg i.v., day 4 after inoculation
[30] = 10 nmol/kg i.v., day 5 after inoculation
[31] = 10 nmol/kg tail vein once per day, 1 day before inoculation, mean ± SE
[32] = 100 nmol/kg i.v., day 0 after inoculation
[33] = 100 nmol/kg i.v., day 1 after inoculation
[34] = 100 nmol/kg i.v., day 2 after inoculation
[35] = 100 nmol/kg i.v., day 3 after inoculation
[36] = 100 nmol/kg i.v., day 4 after inoculation
[37] = 100 nmol/kg i.v., day 5 after inoculation
[38] = 100 nmol/kg tail vein once per day, 1 day before inoculation, mean ± SE

60K PEG-AM: adrenomedullin derivative having a PEG group with a weight-average molecular weight of 60 kDa, prepared according to WO 2017/047788
Score of gross lesion examination of lung ([1]; Left lung, 25 nmol/kg i.v. once per day, mean ± SE): 2.0 ± 0.5
Score of gross lesion examination of lung ([1]; Left lung, 250 nmol/kg i.v. once per day): 2.4 ± 0.2
Score of gross lesion examination of lung ([1]; Right lung, 25 nmol/kg i.v. once per day): 2.0 ± 0.5
Score of gross lesion examination of lung ([1]; Right lung, 250 nmol/kg i.v. once per day): 1.9 ± 0.3
gross lesion formation in the lung ([1]; Test III, administered groups vs control group): significantly suppressed
Score of histopathological examination of lung: Pneumonia score ([2]; Table 14, 25 nmol/kg i.v. once per day): 8.3 ± 1.5
Score of histopathological examination of lung: Pneumonia score ([2]; Table 14, 250 nmol/kg i.v. once per day): 9.4 ± 0.6
Score of histopathological examination of lung: Pneumonia score ([2]; Table 15, 25 nmol/kg i.v. once per day): 8.3 ± 1.5
Score of histopathological examination of lung: Pneumonia score ([2]; Table 15, 250 nmol/kg i.v. once per day): 9.4 ± 0.6
General condition score [3, 12]: 0.0 ± 0.0
General condition score [3, 13]: 0.1 ± 0.0
General condition score [3, 14]: 0.5 ± 0.0
General condition score [3, 15]: 0.7 ± 0.1
General condition score [3, 16]: 0.9 ± 0.1
General condition score [3, 17]: 0.0 ± 0.0
General condition score [3, 18]: 0.0 ± 0.0
General condition score [3, 19]: 0.1 ± 0.0
General condition score [3, 20]: 0.5 ± 0.0
General condition score [3, 21]: 0.8 ± 0.0
General condition score [3, 22]: 1.0 ± 0.0
General condition score [3, 23]: 0.0 ± 0.0
Body weight [4, 12]: 16.4 ± 0.4
Body weight [4, 13]: 16.3 ± 0.4
Body weight [4, 14]: 14.5 ± 0.4
Body weight [4, 15]: 13.9 ± 0.5
Body weight [4, 16]: 13.9 ± 0.5
Body weight [4, 17]: 16.4 ± 0.4
Body weight [4, 18]: 16.1 ± 0.4
Body weight [4, 19]: 15.8 ± 0.5
Body weight [4, 20]: 14.3 ± 0.4
Body weight [4, 21]: 13.7 ± 0.3
Body weight [4, 22]: 13.3 ± 0.3
Body weight [4, 23]: 16.4 ± 0.3
virus concentration in the lung [5]: significantly decreased

CC[C@H](C)[C@H](NC(=O)[C@H](CCC(N)=O)NC(=O)[C@H](Cc1c[nH]cn1)NC(=O)[C@H](C)NC(=O)[C@H](CC(C)C)NC(=O)[C@H](CCCCN)NC(=O)[C@H](CCC(N)=O)NC(=O)[C@@H](NC(=O)[C@@H](NC(=O)[C@@H]1CSSC[C@H](NC(=O)CNC(=O)[C@H](Cc2ccccc2)NC(=O)[C@H](CO)NC(=O)[C@H](CCCNC(=N)N)NC(=O)[C@H](CC(C)C)NC(=O)CNC(=O)[C@H](CCC(N)=O)NC(=O)[C@H](Cc2ccccc2)NC(=O)[C@H](CC(N)=O)NC(=O)[C@H](CC(N)=O)NC(=O)[C@H](CCSC)NC(=O)[C@H](CO)NC(=O)[C@H](CCC(N)=O)NC(=O)[C@H](CCCNC(=N)N)NC(=O)[C@@H](N)Cc2ccc(O)cc2)C(=O)N[C@@H](CCCNC(=N)N)C(=O)N[C@@H](Cc2ccccc2)C(=O)NCC(=O)N[C@@H]([C@@H](C)O)C(=O)N1)[C@@H](C)O)C(C)C)C(=O)N[C@@H](Cc1ccc(O)cc1)C(=O)N[C@@H](CCC(N)=O)C(=O)N[C@@H](Cc1ccccc1)C(=O)N[C@H](C(=O)N[C@@H](CC(=O)O)C(=O)N[C@@H](CCCCN)C(=O)N[C@@H](CC(=O)O)C(=O)N[C@@H](CCCCN)C(=O)N[C@@H](CC(=O)O)C(=O)N[C@@H](CC(N)=O)C(=O)N[C@H](C(=O)N[C@@H](C)C(=O)N1CCC[C@H]1C(=O)N[C@@H](CCCNC(=N)N)C(=O)N[C@@H](CO)C(=O)N[C@@H](CCCCN)C(=O)N[C@H](C(=O)N[C@@H](CO)C(=O)N1CCC[C@H]1C(=O)N[C@@H](CCC(N)=O)C(=O)NCC(=O)N[C@@H](Cc1ccc(O)cc1)C(N)=O)[C@@H](C)CC)C(C)C)[C@@H](C)O [adrenomedullin]
adverse events [6]: no adverse event directly caused by AM has been reported

[Ala-44]hAM(13-52): adrenomedullin analog: peptide of SEQ ID NO: 17, amidated at the C-terminus, disulfide bond formed by two cysteine residues (SFGCRFGTCTVQKLAHQIYQFTDKDKDNVAPASKISPQGY-NH2; disulfide 4-9 (inferred))
Score of histopathological examination of lung: Pneumonia score ([7]; 10 nmol/kg i.v. once per day): 8.9 ± 0.4
Score of histopathological examination of lung: Pneumonia score ([7]; 100 nmol/kg i.v. once per day): 9.0 ± 0.5
Virus concentration in lung ([8]; 10 nmol/kg i.v. once per day): 53.0 ± 3.0 ×10^4 PFU/right lung
Virus concentration in lung ([8]; 100 nmol/kg i.v. once per day): 43.3 ± 4.6 ×10^4 PFU/right lung
virus concentration in the lung [8, 24]: significantly decreased
General condition score [9, 25]: 0.0 ± 0.0
General condition score [9, 26]: 0.0 ± 0.0
General condition score [9, 27]: 0.2 ± 0.0
General condition score [9, 28]: 0.5 ± 0.0
General condition score [9, 29]: 0.8 ± 0.0
General condition score [9, 30]: 1.0 ± 0.0
General condition score [9, 31]: 0.0 ± 0.0
General condition score [9, 32]: 0.0 ± 0.0
General condition score [9, 33]: 0.0 ± 0.0
General condition score [9, 34]: 0.1 ± 0.0
General condition score [9, 35]: 0.5 ± 0.0
General condition score [9, 36]: 0.8 ± 0.0
General condition score [9, 37]: 1.0 ± 0.0
General condition score [9, 38]: 0.0 ± 0.0
Score of gross lesion examination of lung ([10]; Left lung, 10 nmol/kg i.v. once per day, mean ± SE): 2.8 ± 0.2
Score of gross lesion examination of lung ([10]; Left lung, 100 nmol/kg i.v. once per day): 2.6 ± 0.2
Score of gross lesion examination of lung ([10]; Right lung, 10 nmol/kg i.v. once per day): 2.9 ± 0.1
Score of gross lesion examination of lung ([10]; Right lung, 100 nmol/kg i.v. once per day): 2.5 ± 0.2
gross lesion formation in the lung [10, 24]: significantly suppressed
Body weight [11, 25]: 15.7 ± 0.3
Body weight [11, 26]: 16.1 ± 0.3
Body weight [11, 27]: 15.1 ± 0.3
Body weight [11, 28]: 14.0 ± 0.3
Body weight [11, 29]: 13.2 ± 0.2
Body weight [11, 30]: 12.8 ± 0.2
Body weight [11, 31]: 15.8 ± 0.2
Body weight [11, 32]: 15.8 ± 0.2
Body weight [11, 33]: 16.2 ± 0.3
Body weight [11, 34]: 15.5 ± 0.2
Body weight [11, 35]: 14.6 ± 0.3
Body weight [11, 36]: 13.6 ± 0.2
Body weight [11, 37]: 12.9 ± 0.1
Body weight [11, 38]: 15.8 ± 0.2
